This is an account of results in article PMC7694175, “Kunitz-Type Peptides from the Sea Anemone Heteractis crispa Demonstrate Potassium Channel Blocking and Anti-Inflammatory Activities” (Biomedicines, 2020).

The test system of one experiment is TNF-α. Briefly: TNF-α ELISA in blood of mice with carrageenan-induced inflammation. It counts as in vivo, ICR mice. Conditions: mouse blood 24 h after carrageenan, indomethacin 5 mg/kg oral. The protocol:
Tests were performed on male ICR mice, with six individuals in each group. A peptide sample was dissolved in sterile saline and administered intravenously at doses of 0.1 and 1.0 mg/kg. Control animals received an equivalent volume of sterile saline. Indomethacin at a dose of 5 mg/kg was used as a positive control and administered orally to animals. Each mouse received 20 μL of a 1% solution of carrageenan in the hind paw pad after 30 min in the case of saline and tested peptide and after 60 min in the case of indomethacin. Then, the resulting edema was measured at several time points (1, 3, 5, and 24 h) using a plethysmometer (Ugo Basile, Gemonio (VA), Italy).
Animals were terminally anaesthetized with sodium pentobarbital ([…] i.p., Euthatal, Merial Animal Health, Essex, UK) 24 h after carrageenan injection. Then the thoracic cavity was opened and blood was collected in tubes with the ethylenediaminetetraacetic acid (EDTA) directly from the right atrium of the heart. The whole blood was centrifuged at 2.5 × 10^3× g for 10 min to remove cells; the blood serum was then aliquoted and stored at −20 °C. These samples were analyzed for TNF-α in the enzyme-linked immunosorbent assay (ELISA) using a diagnostic kit according to the manufacturer’s protocol (CUSABIO BIOTECH Co., Ltd., Houston, TX, USA).
On the technique in general: An ELISA detects its analyte on a solid surface through an enzyme-linked reagent.

The next experiment concerns Kv1.1. As to conditions: cited from earlier work. From the text:
(§1) Kalicludines block Kv1.2 in µM concentratio ...

A further experiment deals with Shaker IR. The arrangement: key to IC50 Shaker IR (class symbol): -: no or weak activity. Conditions: cited from earlier work.
For a further experiment, the system named is Kv1.2. Set-up: key to IC50 Kv1.2 (class symbol): -: no or weak activity. Conditions: cited from earlier work. From the text: Table 1 Kunitz-type voltage-gated potassium channel toxins from animal venoms. | column: IC50 (nM) / Kv1.2
The subject of a further experiment is Kv1.3. Set-up: key to IC50 Kv1.3 (class symbol): -: no or weak activity. As to conditions: cited from earlier work.
Another experiment relates to Kv1.6. Set-up: key to IC50 Kv1.6 (class symbol): -: no or weak activity. As to conditions: cited from earlier work. From the text: Table 1 Kunitz-type voltage-gated potassium channel toxins from animal venoms. | column: IC50 (nM) / Kv1.6
A further experiment deals with trypsin. Conditions: cited from earlier work.
Experiment [1] concerns Kv1.1, Kv1.2, and Kv1.6 channels in rat synaptosomal membranes. Conditions: ref [18], cited from earlier work; for IC50: 125I α-DTX dendrotoxin binding to synaptosomal membranes.
Text: as §1

The next experiment deals with crabs. As to conditions: ref [18]; cited from earlier work.
Experiment [2] has as its system macrophages treated with LPS. Conditions: ref [68]; cited from earlier work. From the text: Kv1.3 channels have gained a prominent role for their possibility to control neuroinflammatory and autoimmune diseases. Inflammation involves several processes including the activation of inflammatory cells, the secretion of pro-inflammatory cytokines and the release of various inflammatory mediators, leading to symptoms of inflammation such as redness, swelling, fever and pain [67].

Read-outs that look alike come from different tables or passages of the source. Bridge positions count the residues as written; N and C are the ends. Ends that are not written are not given here.

For the molecule `COc1ccc2c(c1)c(CC(=O)O)c(C)n2C(=O)c1ccc(Cl)cc1` [indomethacin], in the experiment with TNF-α, the “effect on TNF-α synthesis” value is listed as “reduced the synthesis of TNF-α”.
In general, IC50 refers to the point on the concentration scale where inhibition reaches its midpoint. On to “DTX-δ: DTX-δ (P00982) from Dendroaspis angusticeps (AAKYCKLPVRYGPCKKKIPSFYYKWKAKQCLPFDYSGCGGNANRFKTIEECRRTCVG; UniProt P00982 1-57, looked up)”, for which the half-maximal inhibitory concentration (IC50) in the experiment with Kv1.1 (ref [49]) is 0.01 nM; with Shaker IR (ref [49]), 1000 nM.
Regarding “APEKTx1: APEKTx1 (P61541) from the sea anemone A. elegantissima (GTTCYCGKTIGIYWFGTKTCPSNRGYTGSCGYFLGICCYPVD; UniProt P61541 1-42, looked up)”, in the experiment with Kv1.1 (ref [17]), the IC50 is 0.9 nM and the “Kv1.1 block (in words)” value was “selectively blocks Kv1.1 channels”. In addition, the “IC50 Kv1.2 (class symbol)” value in the experiment with Kv1.2 (ref [17]) is “-”. Besides, the “IC50 Kv1.3 (class symbol)” value in the experiment on Kv1.3 (ref [17]) is on record as “-”. The “IC50 Kv1.6 (class symbol)” value in the experiment with Kv1.6 (ref [17]) is listed as “-”. Further, in the experiment on Shaker IR (ref [17]), the “IC50 Shaker IR (class symbol)” value is listed as “-”. Further, the “trypsin inhibition (in words)” value with trypsin (ref [17]) is reported as “effectively inhibiting trypsin”.
Turning to “ShPI-1: ShPI-1 (P31713) from S. helianthus (SICSEPKKVGRCKGYFPRFYFDSETGKCTPFIYGGCGGNGNNFETLHQCRAICRA; UniProt P31713 1-55, looked up)”, the figures for the half-maximal inhibitory concentration (IC50) in the experiment on Kv1.1 (ref [19]), with Kv1.2 (ref [19]) and in the experiment on Kv1.6 (ref [19]) were 117 ± 15 nM, 9 ± 2 nM and 9 ± 2 nM, respectively. Also, the “IC50 Kv1.3 (class symbol)” value in the experiment on Kv1.3 (ref [19]) is given as “-”. The “IC50 Shaker IR (class symbol)” value in the experiment with Shaker IR (ref [19]) is “-”.
On to “AsKC1: AsKC1 (Q9TWG0) from A. sulcata (INKDCLLPMDVGRCRASHPRYYYNSSSKRCEKFIYGGCRGNANNFHTLEECEKVCGVR; disulfide 14-38, 30-51, 5-55 (inferred); UniProt Q9TWG0 1-58, looked up)”, for which the 50% inhibitory concentration (IC50) in the experiment on Kv1.2 (ref [16]) was 2800 nM.
As for “AsKC3: AsKC3 (Q9TWF8) from A. sulcata (INGDCELPKVVGRCRARFPRYYYNLSSRRCEKFIYGGCGGNANNFHTLEECEKVCGVRS; disulfide 14-38, 30-51, 5-55 (inferred); UniProt Q9TWF8 1-59, looked up)”, in the experiment with Kv1.2 (ref [16]), the IC50 was 1300 nM.
For “DTX-I: DTX1 (P00979) from snake Dendroaspis polylepis (QPLRKLCILHRNPGRCYQKIPAFYYNQKKKQCEGFTWSGCGGNSNRFKTIEECRRTCIRK; UniProt P00979 1-60, looked up)”, the IC50 was 3.1 nM in the experiment on Kv1.1 (ref [48]) and 0.13 nM in the experiment on Kv1.2 (ref [48]).
“AsKC2: AsKC2 (Q9TWF9) from A. sulcata (INKDCLLPMDVGRCRARHPRYYYNSSSRRCEKFIYGGCRGNANNFITKKECEKVCGVR; disulfide 14-38, 30-51, 5-55 (inferred); UniProt Q9TWF9 1-58, looked up)”: the half-inhibitory concentration (IC50) in the experiment with Kv1.2 (ref [16]) was 1100 nM.
Consider “LmKTT-1a: LmKTT-1a (P0DJ46) from scorpion Lychas mucronatus”, for which the figures for the IC50 in the experiment on Kv1.1 (ref [50]), with Kv1.2 (ref [50]) and in the experiment with Kv1.3 (ref [50]) were above 1000 nM, above 1000 nM and 1580 ± 73 nM, respectively.

B1: SHTXIII: SHTXIII (B1B5I8) from S. haddoni (protein, UniProt B1B5I8 20-81, looked up)
KappaPI-stichotoxin-Shd2a: TEEMPALCHLQPDVPKCRGYFPRYYYNPEVGKCEQFIYGGCGGNKNNFVSFEACRATCIIPL
Turning to B1, the IC50 in experiment [1] (column Kv1.1, read-out: IC50 Kv1.1 (125I α-DTX binding)) was 270 nM; in experiment [1] (column Kv1.2, read-out: IC50 Kv1.2 (125I α-DTX binding)) it was 270 nM; in experiment [1] (column Kv1.6, read-out: IC50 Kv1.6 (125I α-DTX binding)) it was 270 nM. Besides, in experiment [1] (rat synaptosomal membranes, at the level of Kv1.1, Kv1.2, and Kv1.6), the “competition with the binding of α-DTX (in words)” value is “competed with the binding of α-DTX”. Besides, the “paralysis of crabs (in words)” value with crabs is listed as “paralyzes crabs”. In addition, the “trypsin inhibition (in words)” value in the experiment with trypsin (ref [18]) was “inhibited trypsin”.

B2: bikunin: a human Kunitz-type peptide (protein, UniProt P02760 206-352, looked up)
Inter-alpha-trypsin inhibitor …: AVLPQEEEGSGGGQLVTEVTKKEDSCQLGYSAGPCMGMTSRYFYNGTSMACETFQYGGCMGNGNNFVTEKECLQTCRTVAACNLPIVRGPCRAFIQLWAFDAVKGKCVLFPYGGCQGNGNKFYSEKECREYCGVPGDGDEELLRFSN
modifications: Inter-alpha-trypsin inhibitor light chain
notes: a human Kunitz-type peptide
As for B2, in experiment [2], the “effect on production of mediators” value is “inhibits the production of thromboxane B2, TNF-α, and IL-8”.
